# Laboratory results reported in patent US6281201A, “Base-modified derivatives of 2',5'-oligoadenylate and antiviral uses thereof” (Temple University- of the Commonwealth System of Higher …, priority 1999, dated 2001).
# Legend:
# HIV-1 = assay: Inhibition of HIV-1 replication: infected centers assay, HIV-1-induced syncytia formation; type: cell-based, HIV-1 strain IIIB; conditions: 300 μM (table footnote: 300 μm [sic]); PBL treated 2 h, HIV-1 IIIB MOI approx. 0.1; Sup T1 cells, read at 72 hours; mean of triplicates, variance did not exceed 5-10%
# Description: (§1) Three studies were performed to determine the antiviral activity of the (2'-5')oligonucleotide derivatives of the present invention: (i) inhibition of HIV-1-replication, (ii) inhibition of HIV-1 reverse-transcriptase (RT) activity, and (iii) activation of recombinant human GST-RNase L. All compounds were tested at a concentration of 300 μM.
# The infected centers assay as described by Henderson et al., Virology 1991, 182, 186, was used to measure the ability of the trimer core compounds of the invention to inhibit HIV-1 induced syncytia formation, an indicator of HIV-1 replication in T cells. Freshly isolated peripheral blood lymphocytes (PBL) were treated with 2-5A trimer or derivatives for 2 hours and infected with HIV-1 strain IIIB at a multiplicity of infection of approximately 0.1. The infected PBL were maintained in RPMI-1640 medium supplemented with 10% (v/v) heat-inactivated fetal calf serum at 37° C. in a humidified 5% CO2 in air atmosphere. After 48 hours, the cells were washed twice in Hank's balanced salt solution, serially diluted and seeded into multiple wells of a 96-well microtiter plate. Immediately, 2×10^5 exponentially growing Sup T1 cells were added to each well; Sup T1 cells readily form a syncytium with a cell which is productively infected with HIV-1. The wells were examined daily for the presence of syncytia, using a tissue culture microscope. The first signs of syncytia formation can be seen in 12 hours, with some complete syncytia developing by 24 hours. Final results were read at 72 hours. Each syncytium was counted as a single infected cell. The number of syncytia per seeded cell is determined and expressed as an infected center per infected cell. The number of syncytia per 10^4 cells was 121±16 for the control Sup T1 cells.
# ^b Inhibition of HIV-1 replication was determined by HIV-1-induced
# syncytia formation (fold reduction) for each compound. The number of
# syncytia/10^4 cells was 121 ± 16 for the control Sup T1 cells. The
# [1] = system: recombinant human GST-RNase L; assay: Activation of recombinant human GST-RNase L (hydrolysis of poly(U)-3'-[^32 P]pCp); type: biochemical; conditions: 300 μM; mean of duplicates, variance did not exceed 5-10%
# Description: as §1
# Human recombinant RNase L was expressed in E. coli(DH5α) as a fusion protein of glutathione-S-transferase (GST). Activation of human recombinant GST-RNase L was measured as the percent of poly(U)[^32 P]pCp hydrolyzed in the presence of authentic 2',5'-oligoadenylate trimer core or trimer core analog of the invention as described by Sobol et al., J. Biol. Chem. 1995, 270, 5963. The data is shown in Table 1 as the mean of duplicate determinations.
# ^d The activation of recombinant human RNase L was measured as the
# percent hydrolysis of poly(U)-3'-[^32 P]pCp in the presence of the
# trimers 22-29. The mean of duplicate determinations is shown; variance did
# [2] = system: HIV-1 reverse-transcriptase; assay: Inhibition of HIV-1 reverse-transcriptase (RT) activity in culture supernatant of infected Sup T1 cells; type: cell-based; conditions: 300 μM, 6 h pretreatment of Sup T1 cells; supernatant 96 h post-infection; mean of duplicates, variance did not exceed 5-10%
# Description: as §1
# Sup T1 cells were treated with trimer core compound at 300 μM for 6 hours and then infected with HIV-1 at a multiplicity of infection of approximately 0.1. At 96 hours post-infection, culture supernatant was removed and HIV-1 RT activity was assayed […] as described by Henderson et al., Virology 1991, 182, 186. Briefly in this method, 25 μl of culture supernatant was added to a 50 μl cocktail containing 50 mM Tris (pH 8.0), 20 mM dithiothreitol, 10 mM MgCl2, 60 mM NaCl, 0.05% Nonidet p-40, 5 μg/ml oligodeoxythymidylic acid, 10 μg/ml polyriboadenylic acid, 10 μM deoxythymidine triphosphate and 1mCi [α^32 P]thymidine 5'-triphosphate. The mixture was incubated at 37° C. for 2 hours. Fifty microliters of the cocktail were then spotted onto diethylaminoethyl (DEAE) paper, dried, washed with 2×SSC solution (three times for 10 minutes each time) and 95% ethanol (two times for 5 minutes each time), dried and exposed to radiographic film for 18 to 24 hours at -80° C. The filters were cut and final quantitation was determined by scintillation spectrometry.
# The data for the HIV-1 RT activity is shown in Table 1 as a percent of RT activity. Control values for RT activity ranged from 15,000 to 16,000 dpm [α^32 P] incorporated.
# ^c Percent inhibition of reverse-transcriptase (HIV-1 RT) activity.
# Control values for HIV-1 RT activity ranged from 15000 to 16000 dpm
# incorporated. The mean of duplicate determinations is shown; variance did
Substance,"Syn: inhibition of HIV-1 replication, HIV-1-induced syncytia formation (fold reduction) (HIV-1) [fold]","RNase L: activation of recombinant human RNase L, percent hydrolysis of poly(U)-3'-[^32 P]pCp [1] [%]",RT: percent inhibition of reverse-transcriptase (HIV-1 RT) activity [2] [%]
"1-(β-D-Ribofuranosyl)-1H-1,2,4-triazole-3-carboxamide]yl-(2'-5')-adenylyl-(2'-5')-adenosine Bis(triethylammonium) Salt [Compound 28]",1.2,0,99.5
Adenylyl-(2'-5')-N^6 -benzyladenylyl-(2'-5')-adenosine Bis(triethylammonium) Salt [Compound 23],> 1500,34.8,7.6
"Adenylyl-(2'-5')-[1-(β-D-ribofuranosyl)-1H-1,2,4-triazole-3-carboxamide]yl-(2'-5')-adenosine Bis(triethylammonium) Salt [Compound 27]",7.0,9.4,99.7
"Adenylyl-(2'-5')-adenylyl-(2'-5')-1-(β-D-ribofuranosyl)-1H-1,2,4-triazole-3-carboxamide Bis(triethylammonium) Salt [Compound 26]",1.6,87.7,99.7
Adenylyl-(2'-5')-adenylyl-(2'-5')-N^6 -benzyladenosine Bis(triethylammonium) Salt [Compound 22],> 1500,37.4,33
N^6 -Benzyladenylyl-(2'-5')-N^6 -benzyladenylyl-(2'-5')-N^6 -benzyladenosine Bis(triethylammonium) Salt [Compound 25],> 1500,13.6,10.6
N^6 -Benzyladenylyl-(2'-5')-adenylyl-(2'-5')-adenosine Bis(triethylammonium) Salt [Compound 24],> 1500,0,16.7
